In patent publication US10201516B2 (The Regents of the University of California, priority 2014, dated 2019):
“Also recorded” adds a separate entry of the source.

Assays:
CaMKii [1] = test: Western blot of phospho-CaMKii in rescued Rasless MEFs; format: cell-based, mouse
Procedure: (§1) Experimental cells were washed twice in ice-cold PBS and lysed in 1% Triton lysis buffer [25 mmol/L Tris pH 7.5, 150 mmol/L NaCl, 1% Triton X-100, 1 mmol/L EDTA, 1 mmol/L EGTA, 20 mmol/L NaF, 1 mmol/L […], and 1 mmol/L DTT] supplemented with a protease inhibitor cocktail (Roche) and cleared by centrifugation. Protein concentrations were determined by the Bio-Rad Protein Assay (Bio-Rad). Equal amounts of protein extracts were resolved using SDS-PAGE (NuPAGE; Invitrogen), transferred to a nitrocellulose membrane, and immunoblotted with primary antibodies indicated, followed by secondary antibodies labeled with either IRDye800 (Rockland) or Alexa Fluor 680 (Molecular Probes) and were visualized using a LI-COR Odyssey scanner. A complete list of primary antibodies is provided in the Extended Experimental Procedures.

PANC1 or PANC2.13 = test: Established subcutaneous human pancreatic xenograft tumors; format: in vivo, mouse
Procedure: (§2) The drug was daily administrated into either NOD-SCID or athymic nude mice by oral gavages (OG) at 1 mg/kg or intraperitoneal (I.P) injection at 0.5 mg/kg. 10% DMSO, 10% cremophor, and 80% saline solutions were used as the solvent and vehicle control.

[2] = test system: K-Ras^G12V-induced papillomas; test: K-Ras^G12V-induced papilloma in LRIG1cre/ER/LSL-Ras^G12V GEMM; format: in vivo, mouse
From the text: (§3) We first used a papilloma model driven by H- or K-Ras^G12V under the control of a skin stem cell promoter, Lrig1 (FIG. 7C) (Jaks et al., Exp Cell Res 316:1422-1428, 2010; Page et al., Cell Stem Cell 13, 471-482, 2013). In this GEMM, tamoxifen inducible Cre recombinase initiates the expression of oncogenic H- or K-Ras^G12V, and the enforced oncogenic Ras expression disrupts the skin hemeostasis during wound healing and further induces papilloma formations (FIG. 7C).
(§4) Lrig1 Cre/ER/LSL Hras and Lrig1 Cre/ER/LSL-Kras^G12D mice have been backcrossed into the FVB/N background over multiple generations to minimize the effects of genetic heterogeneity on tumor development. Cre recombinase was activated in both groups of mice by administering a single dose of 4oht (Tamoxifen), topically applied at 8 weeks of age. On day 7 thereafter, wounding was induced on their backs by cutting a 2 cm incision for papilloma development.

[3] = test system: H-Ras^G12V-induced tumors; test: H-Ras^G12V-induced papilloma in LRIG1cre/ER/LSL-Ras^G12V GEMM; format: in vivo, mouse; conditions: daily treatment (FIG. 7D)
From the text: as §3, §4

[4] = Toxicity by body weight changes in treated mice; format: in vivo, mouse; conditions: oral or i.p. prostratin (FIG. 13D)
Procedure: as §2

HIV-1 = conditions: cited from earlier work
Fzd8 = Fzd8 mRNA expression in PANC1 and PANC2.13 (qPCR); format: cell-based; conditions: human pancreatic cancer cells (FIG. 13B)
Procedure: (§5) Total RNAs were isolated and purified using QIAGEN RNAeasy kit. 1 μg RNA per specimen was reverse transcribed into cDNA using SuperScript™ First-Strand Synthesis System for RT-PCR (Invitrogen). Possible contamination of genomic DNA was excluded by treatments of DNase I. Quantitative real-time PCR array analysis was performed using SYBR Green (Applied Biosystem). Fold differences and statistical analysis were calculated using the GraphPad Prism 4.00 for Windows (GraphPad Software). The mouse Stem Cell Signaling RT^2Profiler PCR array on 96-well plate (PAMM-047Z) was purchased from SABiosciences.

[5] = test system: Ras^V12-transformed NIH/3T3 cells; test: Tumor initiation of Ras^V12-transformed NIH/3T3 cells in nude mice; format: in vivo, mouse
Procedure: All experiments were approved by the IACUC of the University of California, San Francisco. Ras^V12-transformed NIH/3T3 cells were subcutaneously injected in female nude mice (Nu/Nu) at 50, 100 or 1,000 cells per flank. Palpable tumors were measured twice a week. The animals were divided into five mice per group. Pancreatic adenocarcinoma cells derived from Braf^CA and Kras^LSL-G12D mice are provided by Eric Collisson, and genotyped as described (Collison et al., Nat Med 17:500-503, 2011; Dankort et al., Genes Dev 21:379-384, 2007; Hingorani et al., Cancer Cell 4:[…], 2003). One hundred cells were orthotopically implanted in 6- to 8-week-old FVB/n mice in 20 μL 50% Matrigel using a 28.5-gauge needle. Mice were monitored for one month and were euthanized when distressed.
as §2

[6] = test system: PANC2.13 and PANC1 orthotopic tumors; test: Prevention of orthotopic human pancreatic tumors in NOD-SCID mice; format: in vivo, mouse
Procedure: as §2

[7] = test system: K-Ras and CaM interaction; test: CaM pull-down assay of K-Ras/calmodulin interaction; format: cell-based; conditions: Ras^V12-transformed cells and multiple human pancreatic cancer cell lines (FIG. 5H)
LEF1 = LEF1 mRNA expression in PANC1 and PANC2.13 (qPCR); format: cell-based; conditions: human pancreatic cancer cells (FIG. 13B)
Procedure: as §5

Rasless MEFs = test: Cell viability of rescued Rasless MEFs; format: cell-based, mouse
Procedure: (§6) The dead cells were removed, and MTS assay (Promega, G5430) was performed for determining the percentage of viable cells, according to the manufacturer's instructions. DMSO was used as vehicle control and for normalization.

CaMKii [8] = test: Western blot of phospho-CaMKii in Ras-transformed NIH/3T3 cells (and human pancreatic cancer cell lines); format: cell-based, mouse
Procedure: as §1

PANC1 and PANC2.13 = test: Prevention of subcutaneous human pancreatic xenograft tumors in nude mice; format: in vivo, mouse
Procedure: as §2

[9] = PKC activators, literature; cited from earlier work
[10] = test system: Ras^V12-transformed NIH/3T3 cells; test: Drug sensitization assay (MTS cell viability), Ras-transformed NIH/3T3; format: cell-based, mouse
Procedure: as §6

[11] = Rasless MEFs rescued with H-Ras^V12 (FIG. 13C)
[12] = Rasless MEFs rescued with K-Ras(4B)^V12 (FIG. 13C)
[13] = subcutaneous PANC2.13 (FIG. 6D)

## CC(=O)O[C@@]12C[C@@H](C)[C@@]3(O)C(C=C(CO)C[C@]4(O)C(=O)C(C)=C[C@@H]34)[C@@H]1C2(C)C (some centres unmarked) [prostratin, 12-deoxyphorbol-13-acetate]
CaMKii [1]; [11]
  phospho-CaMKii response: minimal responses
CaMKii [1]; [12]
  phospho-CaMKii: increased phospho-CaMKii
PANC1 or PANC2.13; FIG. 14D
  expression of cleaved caspase 3 in subcutaneous tumors: enhanced expression of cleaved caspase 3
PANC1 or PANC2.13; daily oral treatment from 10 to 14 days post-injection, vs vehicle (FIG. 7A)
  growth rate of established subcutaneous tumors: significantly reduced growth rate
[2]; FIG. 7E
  EMT markers (E-cadherin, vimentin) in K-Ras^G12V-driven skin tumors: maintained strong expression of epithelial maker
[2]; FIG. 14E
  growth rate of K-Ras^G12V-induced papillomas: significantly slowed down the growth rate
[2]; daily treatment (FIG. 7D)
  formation of papillomas driven by K-Ras^G12V: significantly delayed/reduced the formation of papillomas
[3]
  initiation of H-Ras^G12V-induced tumors: no effects
[4]
  systemic toxicity (body weight changes): no evidence of systemic toxicity; also recorded: no systematically toxic effects
HIV-1; literature
  CD4 receptor: down-regulating the CD4 receptor
HIV-1; memory CD4+ T cells that harbor latent proviruses
  reactivation of latent HIV-1: reactivates HIV-1
Fzd8
  expression of Fzd8: increased expression of Fzd8
[5]; administered orally or intra-peritoneally, nude mice (FIG. 13D)
  tumorigenicity of K-Ras^V12-transformed cells: dramatically suppressed the tumorigenicity
[5]; vs vehicle control (FIG. 13D-E)
  size of subcutaneous tumor derived from K-Ras^V12-NIH/3T3 cells: much smaller
[5]; vs vehicle control (FIG. 13E)
  phosphor-CaMKii in tumor derived from K-Ras^V12-NIH/3T3 cells: greatly increased phosphor-CaMKii
[6]; FIG. 6E and FIG. 14B
  sizes of orthotopic tumors by BLI: dramatically reduced the sizes of orthotopic tumors
[6]; FIG. 6E and FIG. 14C
  metastasis to the peritoneum: reduced metastasis to the peritoneum
[6]; FIG. 6F and FIG. 14B
  formation of primary tumors in the pancreas (H&E staining): most of prostratin treated mice did not show formation of primary tumors in the pancreas
[6]; FIG. 6G and FIG. 14B
  Ki67 in orthotopic tumors: much lower Ki67
[6]; NOD-SCID mice, daily oral treatment, vs control
  tumor burden in the orthotopic sites: lower tumor burden
[7]
  endogenous interaction between K-Ras and CaM: abolished the endogenous interaction between K-Ras and CaM
LEF1
  expression of β-catenin targeted gene LEF1: reduced the expressions of β-catenin targeted gene, LEF1
Rasless MEFs; [11]
  cell viability response: minimal responses
Rasless MEFs; [12]
  cell viability: decreased cell viability
CaMKii [8]; NIH/3T3 cells transformed by K-Ras^V12-S181A mutant or H-Ras^V12 (legend FIG. 5I)
  activation of CaMKii: not K-Ras^V12-S181A mutant or H-Ras^V12
CaMKii [8]; Ras^V12-transformed cells and human pancreatic cancer cell lines (FIG. 5H-I)
  levels of phospho-CaMKii: dramatically elevated levels of phospho-CaMKii
CaMKii [8]; cells transformed by H-Ras^V12 or K-Ras^V12-S181D (FIG. 5I)
  activity of CaMKii: did not alter the activity of CaMKii
PANC1 and PANC2.13; subcutaneous PANC2.13 (FIG. 6C)
  tumor initiation and tumor size by bioluminescence imaging (BLI): profoundly suppressed tumor initiation and tumor size
PANC1 and PANC2.13; [13]
  expression of Ki67: reduced expression of Ki67
  tumor growth rate during therapy: dramatically reduced tumor growth rate
PANC1 and PANC2.13; subcutaneous PANC2.13, vs control group (FIG. 6B)
  average size of established tumors: much smaller
PANC1 and PANC2.13; subcutaneous xenograft, oral prostratin from one day before implantation, vs vehicle (FIG. 6A)
  frequency of tumor formation: significantly reduced the frequency of tumor formation
[9]
  tumor promotion: far less potent for tumor promotion
[10]; H-Ras^V12 or K-Ras^V12-S181D-transformed NIH/3T3 cells (FIG. 5J)
  sensitivity to prostratin (cell viability): but not H-Ras^V12 or K-Ras^V12-S181D, -transformed NIH/3T3 cells, were sensitive to prostratin
[10]; K-Ras^V12-transformed NIH/3T3 cells (FIG. 5J)
  cell viability: dramatically reduced cell viability
